Test results as given in patent US8673886B2, “Use of nifuratel to treat infections caused by Atopobium species” (Polichem SA, priority 2009, dated 2014).
In brackets after ≈: the same amount, converted by molar mass. Like-named read-outs stand apart in the source and are kept apart here.

Tested on: Atopobium vaginae
Assay: MIC determination on Brucella agar, susceptibility of Atopobium vaginae strains
Format: cell-based
Settings: for MIC: Fannyhessea vaginae
[1] = all tested strains of Atopobium vaginae

| Compound | MIC (CCUG43049, Atopobium vaginae strain CCUG 43049, Brucella agar, anaerobic, read-out: MIC) [µg/mL] | MIC (CCUG44061, Atopobium vaginae strain CCUG 44061, Brucella agar, anaerobic, read-out: MIC) [µg/mL] | MIC (CCUG44116, Atopobium vaginae strain CCUG 44116, Brucella agar, anaerobic, read-out: MIC) [µg/mL] | MIC (CCUG44125, Atopobium vaginae strain CCUG 44125, Brucella agar, anaerobic, read-out: MIC) [µg/mL] | MIC (CCUG44156, Atopobium vaginae strain CCUG 44156, Brucella agar, anaerobic, read-out: MIC) [µg/mL] | MIC (CCUG44258, Atopobium vaginae strain CCUG 44258, Brucella agar, anaerobic, read-out: MIC) [µg/mL] | MIC (CCUG48515, Atopobium vaginae strain CCUG 48515, Brucella agar, anaerobic, read-out: MIC) [µg/mL] | MICs (range over all strains) [1] [µg/mL] | susceptibility of Atopobium to the agent (conclusion from MIC) [1] | MIC [µg/mL] | MIC (CCUG42099) [µg/mL] | MIC (CCUG43049) [µg/mL] | MIC (CCUG44061) [µg/mL] | MIC (CCUG44116) [µg/mL] | MIC (CCUG44125) [µg/mL] | MIC (CCUG44156) [µg/mL] | MIC (CCUG44258) [µg/mL] | MIC (CCUG48515) [µg/mL] |
| --- | --- | --- | --- | --- | --- | --- | --- | --- | --- | --- | --- | --- | --- | --- | --- | --- | --- | --- |
| Cc1ncc([N+](=O)[O-])n1CCO [Metronidazole, metronidazole] | 16 (≈ 93.5 µM) | 64 (≈ 374 µM) | 32 (≈ 187 µM) | 16 (≈ 93.5 µM) | 8 (≈ 46.7 µM) | 32 (≈ 187 µM) | 32 (≈ 187 µM) | 8 to 256 | resistant |  |  |  |  |  |  |  |  |  |
| CSCC1CN(/N=C/c2ccc([N+](=O)[O-])o2)C(=O)O1 (stereo not shown) [Nifuratel, nifuratel] |  |  |  |  |  |  |  |  | sensitive | 1 (≈ 3.51 µM) | 0.5 (≈ 1.75 µM) | 0.25 (≈ 0.876 µM) | 1 (≈ 3.51 µM) | 0.5 (≈ 1.75 µM) | 0.25 (≈ 0.876 µM) | 0.125 (≈ 0.438 µM) | 0.5 (≈ 1.75 µM) | 0.5 (≈ 1.75 µM) |
